Source: PubChem BioAssay (NCI)
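Assay format: 96-well plates, 48-hour exposure. GI50 is the concentration that inhibits growth by half. TGI: total growth inhibition.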

Tests used:
Test in all cases: DTP human tumour cell line panel, 48 h
786-0 renal = tested on: 786-0 renal
A498 renal = tested on: A498 renal
A549 NSCLC = tested on: A549 NSCLC
ACHN renal = tested on: ACHN renal
BT-549 breast = tested on: BT-549 breast
CAKI-1 renal = tested on: CAKI-1 renal
CCRF-CEM leukemia = tested on: CCRF-CEM leukemia
COLO 205 colon = tested on: COLO 205 colon
DU-145 prostate = tested on: DU-145 prostate
HCC-2998 colon = tested on: HCC-2998 colon
HCT-15 colon = tested on: HCT-15 colon
HL-60(TB) leukemia = tested on: HL-60(TB) leukemia
HOP-62 NSCLC = tested on: HOP-62 NSCLC
HS 578T breast = tested on: HS 578T breast
HT29 colon = tested on: HT29 colon
IGROV1 ovarian = tested on: IGROV1 ovarian
KM12 colon = tested on: KM12 colon
M14 melanoma = tested on: M14 melanoma
MALME-3M melanoma = tested on: MALME-3M melanoma
MCF7 breast = tested on: MCF7 breast
MDA-MB-231 breast = tested on: MDA-MB-231 breast
MDA-MB-435 = tested on: MDA-MB-435
MOLT-4 leukemia = tested on: MOLT-4 leukemia
NCI-H226 lung = tested on: NCI-H226 lung
NCI-H23 lung = tested on: NCI-H23 lung
NCI-H460 lung = tested on: NCI-H460 lung
NCI-H522 lung = tested on: NCI-H522 lung
NCI/ADR-RES ovarian = tested on: NCI/ADR-RES ovarian
OVCAR-3 ovarian = tested on: OVCAR-3 ovarian
OVCAR-4 ovarian = tested on: OVCAR-4 ovarian
OVCAR-5 ovarian = tested on: OVCAR-5 ovarian
OVCAR-8 ovarian = tested on: OVCAR-8 ovarian
PC-3 prostate = tested on: PC-3 prostate
RPMI-8226 leukemia = tested on: RPMI-8226 leukemia
RXF 393 renal = tested on: RXF 393 renal
SF-268 CNS = tested on: SF-268 CNS
SF-295 CNS = tested on: SF-295 CNS
SF-539 CNS = tested on: SF-539 CNS
SK-MEL-28 melanoma = tested on: SK-MEL-28 melanoma
SK-MEL-5 melanoma = tested on: SK-MEL-5 melanoma
SK-OV-3 ovarian = tested on: SK-OV-3 ovarian
SN12C renal = tested on: SN12C renal
SNB-19 CNS = tested on: SNB-19 CNS
SNB-75 CNS = tested on: SNB-75 CNS
SR leukemia = tested on: SR leukemia
SW-620 colon = tested on: SW-620 colon
T-47D breast = tested on: T-47D breast
TK-10 renal = tested on: TK-10 renal
U251 CNS = tested on: U251 CNS
UACC-257 melanoma = tested on: UACC-257 melanoma
UACC-62 melanoma = tested on: UACC-62 melanoma
UO-31 renal = tested on: UO-31 renal

SMILES: O=C(/C=C/c1ccc(Cl)cc1)/C=C/c1cc2ccccc2[nH]c1=O
- GI50 (786-0 renal): 2.02 µM
- TGI (786-0 renal): 4.16 µM
- GI50 (A498 renal): 5.87 µM
- TGI (A498 renal): 18.8 µM
- GI50 (A549 NSCLC): 3.16 µM
- TGI (A549 NSCLC): 48.9 µM
- GI50 (ACHN renal): 4.96 µM
- TGI (ACHN renal): 20.3 µM
- GI50 (BT-549 breast): 3.29 µM
- TGI (BT-549 breast): 11.7 µM
- GI50 (CAKI-1 renal): 4.38 µM
- TGI (CAKI-1 renal): 21.8 µM
- GI50 (CCRF-CEM leukemia): 3.09 µM
- TGI (CCRF-CEM leukemia): 9.74 µM
- GI50 (COLO 205 colon): 3.65 µM
- TGI (COLO 205 colon): 11.7 µM
- GI50 (DU-145 prostate): 3.52 µM
- TGI (DU-145 prostate): 11.7 µM
- GI50 (HCC-2998 colon): 2.02 µM
- TGI (HCC-2998 colon): 3.62 µM
- GI50 (HCT-15 colon): 2.85 µM
- TGI (HCT-15 colon): 14.6 µM
- GI50 (HL-60(TB) leukemia): 2.83 µM
- TGI (HL-60(TB) leukemia): 8.39 µM
- GI50 (HOP-62 NSCLC): 8.21 µM
- TGI (HOP-62 NSCLC): 26 µM
- GI50 (HS 578T breast): 4.14 µM
- TGI (HS 578T breast): 66.6 µM
- GI50 (HT29 colon): 2.5 µM
- TGI (HT29 colon): 6.33 µM
- GI50 (IGROV1 ovarian): 2.34 µM
- TGI (IGROV1 ovarian): 5.5 µM
- GI50 (KM12 colon): 3.11 µM
- TGI (KM12 colon): 10.3 µM
- GI50 (M14 melanoma): 3.11 µM
- TGI (M14 melanoma): 13.4 µM
- GI50 (MALME-3M melanoma): 7.63 µM
- TGI (MALME-3M melanoma): 38.4 µM
- GI50 (MCF7 breast): 0.923 µM
- TGI (MCF7 breast): 8.45 µM
- GI50 (MDA-MB-231 breast): 2.64 µM
- TGI (MDA-MB-231 breast): 7.82 µM
- GI50 (MDA-MB-435): 2.34 µM
- TGI (MDA-MB-435): 5.63 µM
- GI50 (MOLT-4 leukemia): 3.82 µM
- TGI (MOLT-4 leukemia): 13.8 µM
- GI50 (NCI-H226 lung): 2.59 µM
- TGI (NCI-H226 lung): 11.4 µM
- GI50 (NCI-H23 lung): 4.76 µM
- TGI (NCI-H23 lung): 23.5 µM
- GI50 (NCI-H460 lung): 8.52 µM
- TGI (NCI-H460 lung): 28.9 µM
- GI50 (NCI-H522 lung): 1.91 µM
- TGI (NCI-H522 lung): 5.4 µM
- GI50 (NCI/ADR-RES ovarian): 16.8 µM
- TGI (NCI/ADR-RES ovarian): > 100 µM
- GI50 (OVCAR-3 ovarian): 2.07 µM
- TGI (OVCAR-3 ovarian): 4.5 µM
- GI50 (OVCAR-4 ovarian): 5.06 µM
- TGI (OVCAR-4 ovarian): 74.3 µM
- GI50 (OVCAR-5 ovarian): 4.65 µM
- TGI (OVCAR-5 ovarian): 19.6 µM
- GI50 (OVCAR-8 ovarian): 3.03 µM
- TGI (OVCAR-8 ovarian): 12.9 µM
- GI50 (PC-3 prostate): 2.91 µM
- TGI (PC-3 prostate): 13.7 µM
- GI50 (RPMI-8226 leukemia): 1.29 µM
- TGI (RPMI-8226 leukemia): 4.65 µM
- GI50 (RXF 393 renal): 2.81 µM
- TGI (RXF 393 renal): 8.88 µM
- GI50 (SF-268 CNS): 3.61 µM
- TGI (SF-268 CNS): 16 µM
- GI50 (SF-295 CNS): 3.48 µM
- TGI (SF-295 CNS): 13.2 µM
- GI50 (SF-539 CNS): 2.88 µM
- TGI (SF-539 CNS): 9.37 µM
- GI50 (SK-MEL-28 melanoma): 10 µM
- TGI (SK-MEL-28 melanoma): 26.2 µM
- GI50 (SK-MEL-5 melanoma): 10.1 µM
- TGI (SK-MEL-5 melanoma): 25.2 µM
- GI50 (SK-OV-3 ovarian): 12.2 µM
- TGI (SK-OV-3 ovarian): 32.7 µM
- GI50 (SN12C renal): 3.67 µM
- TGI (SN12C renal): 17.4 µM
- GI50 (SNB-19 CNS): 11.3 µM
- TGI (SNB-19 CNS): 24.7 µM
- GI50 (SNB-75 CNS): 5.79 µM
- TGI (SNB-75 CNS): 24.7 µM
- GI50 (SR leukemia): 2.42 µM
- TGI (SR leukemia): 8.19 µM
- GI50 (SW-620 colon): 2.31 µM
- TGI (SW-620 colon): 5.82 µM
- GI50 (T-47D breast): 3.46 µM
- TGI (T-47D breast): 22.7 µM
- GI50 (TK-10 renal): 12.3 µM
- TGI (TK-10 renal): 31.8 µM
- GI50 (U251 CNS): 1.81 µM
- TGI (U251 CNS): 3.68 µM
- GI50 (UACC-257 melanoma): 5.2 µM
- TGI (UACC-257 melanoma): 19.6 µM
- GI50 (UACC-62 melanoma): 2.8 µM
- TGI (UACC-62 melanoma): 10.5 µM
- GI50 (UO-31 renal): 4.28 µM
- TGI (UO-31 renal): 20 µM
